Data published in BigSolDB 2.1.

CC(=O)O[C@]1(C(C)=O)CC[C@H]2[C@@H]3C[C@H](C)C4=CC(=O)CC[C@]4(C)[C@H]3CC[C@@]21C
solubility (mole fraction)
Conditions	278.15 K	283.15 K	288.15 K	293.15 K	298.15 K	303.15 K	308.15 K	313.15 K	318.15 K	323.15 K
in acetone	0.00469	0.00547	0.00618	0.00716	0.0083	0.00959	0.0112	0.0126	0.0144	0.0164
in acetonitrile	0.00283	0.00339	0.00397	0.00473	0.0056	0.00664	0.00785	0.0092	0.0109	0.013
in ethanol	0.000465	0.000655	0.000831	0.00106	0.00135	0.00168	0.00211	0.00267	0.0034	0.0043
in ethyl acetate	0.00327	0.00385	0.00446	0.00515	0.00584	0.00671	0.00773	0.00887	0.0102	0.0118
in isobutanol	0.000675	0.00085	0.00121	0.00157	0.00202	0.00269	0.00351	0.00463	0.00611	0.00789
in isobutyl acetate	0.00292	0.00334	0.0039	0.00443	0.005	0.00574	0.00654	0.00736	0.00849	0.00979
in isopropanol	0.000451	0.000651	0.000754	0.000945	0.00126	0.00166	0.00217	0.00281	0.00373	0.00477
in isopropyl acetate	0.00234	0.00273	0.00317	0.00367	0.00428	0.00497	0.00567	0.00657	0.00751	0.00866
in methanol	0.000588	0.000719	0.000887	0.0011	0.00135	0.00165	0.00202	0.0025	0.00309	0.00381
in methyl acetate	0.00351	0.00415	0.00479	0.00557	0.00649	0.00748	0.00866	0.00999	0.0115	0.0131
in n-butanol	0.000757	0.000978	0.00131	0.00168	0.0022	0.00277	0.00356	0.0046	0.0059	0.00753
in n-butyl acetate	0.00296	0.0035	0.00406	0.00462	0.00538	0.00622	0.00716	0.00829	0.00958	0.0111
in n-propanol	0.000683	0.00089	0.00114	0.00148	0.00188	0.00245	0.0031	0.00395	0.00508	0.00648
in n-propyl acetate	0.0032	0.00384	0.00446	0.00517	0.0059	0.00682	0.00791	0.00917	0.0105	0.012
